The values that follow are results of earlier work, collected in patent US20250381160A1, “Method and Apparatus for Providing Transdermal Delivery of a Carbidopa/Levodopa-Based Lotion for the Treatment of Parkinson's Disease” (Through The Skin LLC, priority 2024, published 2025).

SMILES strings stand for the structures.

Experiment in data set [1]: not given
This is another data set of the same source.

The subject of another data set is Parkinson's Disease. The following applies: carbidopa given with levodopa.
The conditions of data set [2]: with HA of 150,000-750,000 Daltons, 1-3% of the solution, versus formulations without hyaluronic acid.

Consider `NC(Cc1ccc(O)c(O)c1)C(=O)O` (single isomer, unassigned; (-)) [Levodopa, (-)-L-α-amino-β-(3,4-dihydroxybenzene) propanoic acid], for which the solubility in water entry is given as “slightly soluble in water”. Further, the half-life of levodopa entry in data set [1] (carbidopa and levodopa administered together) is “about 1.5 hours”. For the same compound, the “plasma half-life of levodopa” value in data set [1] (without carbidopa) is “about 50 minutes”.
For the compound `CC(Cc1ccc(O)c(O)c1)(NN)C(=O)O` (single isomer, unassigned; (-)) [Carbidopa, (-)-L-α-hydrazino-α-methyl-β-(3,4-dihydroxybenzene) propanoic acid monohydrate], the solubility in water result was “slightly soluble in water”. The “reduction of the amount of levodopa required to produce a given response” value in the data set on Parkinson's Disease is listed as “about 75%”.
Turning to `O=C(O)Cc1ccccc1Nc1c(Cl)cccc1Cl` [diclofenac sodium], the “increase of the amount that penetrated the skin” value in data set [2] is reported as 3 times.
